# Test results as given in patent US8552205B2, “Derivatives of 6,7-dihydro-5H-imidazo[1,2-alpha]imidazole-3-carboxylic acid amides” (Boehringer Ingelheim International GmbH, priority 2007, dated 2013).
# System: IL-2 production in human whole blood stimulated with staphylococcal enterotoxin B
# Experiment: not given
# Format: cell-based
# Details: not given
row,Structure (SMILES),WB [×]
1,"C[C@@]1(Cc2ccc(C#N)cc2)C(=O)N(c2cc(Cl)cc(Cl)c2)c2ncc(C(=O)NC3(C(=O)NC4(c5nnc(C6CC6)[nH]5)CC4)CC3)n21 [BI00659245, (R)-5-(4-Cyano-benzyl)-7-(3,5-dichloro-phenyl)-5-methyl-6-oxo-6,7-dihydro-5H-imidazo[1,2-a]imidazole-3-carboxylic acid {1-[1-(5-cyclopropyl-4H-1,2,4-triazol-3-yl)-cyclopropylcarbamoyl]-cyclopropyl}-amide]",12

# Molecular target: T1, LFA-1 (CD18/CD11a) binding to ICAM-1 (Homo sapiens, UniProt P05107+P20701)
# T1 construct: LFA-1 is immunopurified using the TS2/4 antibody from a 20 g pellet of human JY or SKW3 cells; endogenous in cells; sICAM-1 made in house, secreted from transfected CHO DUX cells
# T1 sequence (P20701 26-1170): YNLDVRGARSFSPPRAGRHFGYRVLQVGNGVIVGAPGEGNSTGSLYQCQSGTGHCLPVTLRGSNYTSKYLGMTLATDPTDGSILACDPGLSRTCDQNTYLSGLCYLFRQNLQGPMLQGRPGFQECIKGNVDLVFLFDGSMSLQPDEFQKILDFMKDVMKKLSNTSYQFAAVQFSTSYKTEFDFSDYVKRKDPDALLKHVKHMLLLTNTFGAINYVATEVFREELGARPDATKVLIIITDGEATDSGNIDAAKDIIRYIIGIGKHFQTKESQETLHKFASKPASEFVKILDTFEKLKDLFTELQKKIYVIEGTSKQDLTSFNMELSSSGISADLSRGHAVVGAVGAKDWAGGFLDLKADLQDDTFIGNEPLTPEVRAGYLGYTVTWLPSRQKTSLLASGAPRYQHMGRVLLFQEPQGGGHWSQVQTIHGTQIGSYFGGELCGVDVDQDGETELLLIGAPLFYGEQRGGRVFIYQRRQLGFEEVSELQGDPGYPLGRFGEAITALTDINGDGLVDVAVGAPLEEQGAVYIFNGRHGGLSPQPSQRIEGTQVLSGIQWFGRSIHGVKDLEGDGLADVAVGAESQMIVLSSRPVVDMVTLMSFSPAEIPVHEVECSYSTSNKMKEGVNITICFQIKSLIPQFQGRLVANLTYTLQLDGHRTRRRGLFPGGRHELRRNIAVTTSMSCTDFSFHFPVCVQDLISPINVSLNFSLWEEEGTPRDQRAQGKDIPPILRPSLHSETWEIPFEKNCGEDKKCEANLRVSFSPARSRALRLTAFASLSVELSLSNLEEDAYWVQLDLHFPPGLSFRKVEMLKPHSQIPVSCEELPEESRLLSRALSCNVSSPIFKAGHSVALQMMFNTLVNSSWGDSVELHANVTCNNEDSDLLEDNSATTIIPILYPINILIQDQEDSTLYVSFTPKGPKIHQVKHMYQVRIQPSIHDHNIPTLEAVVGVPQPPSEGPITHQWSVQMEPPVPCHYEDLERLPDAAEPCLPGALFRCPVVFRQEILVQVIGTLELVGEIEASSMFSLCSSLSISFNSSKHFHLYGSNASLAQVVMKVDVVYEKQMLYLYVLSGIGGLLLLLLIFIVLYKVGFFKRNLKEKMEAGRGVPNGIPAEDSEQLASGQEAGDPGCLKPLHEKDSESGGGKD
# T1 sequence (P05107 23-769): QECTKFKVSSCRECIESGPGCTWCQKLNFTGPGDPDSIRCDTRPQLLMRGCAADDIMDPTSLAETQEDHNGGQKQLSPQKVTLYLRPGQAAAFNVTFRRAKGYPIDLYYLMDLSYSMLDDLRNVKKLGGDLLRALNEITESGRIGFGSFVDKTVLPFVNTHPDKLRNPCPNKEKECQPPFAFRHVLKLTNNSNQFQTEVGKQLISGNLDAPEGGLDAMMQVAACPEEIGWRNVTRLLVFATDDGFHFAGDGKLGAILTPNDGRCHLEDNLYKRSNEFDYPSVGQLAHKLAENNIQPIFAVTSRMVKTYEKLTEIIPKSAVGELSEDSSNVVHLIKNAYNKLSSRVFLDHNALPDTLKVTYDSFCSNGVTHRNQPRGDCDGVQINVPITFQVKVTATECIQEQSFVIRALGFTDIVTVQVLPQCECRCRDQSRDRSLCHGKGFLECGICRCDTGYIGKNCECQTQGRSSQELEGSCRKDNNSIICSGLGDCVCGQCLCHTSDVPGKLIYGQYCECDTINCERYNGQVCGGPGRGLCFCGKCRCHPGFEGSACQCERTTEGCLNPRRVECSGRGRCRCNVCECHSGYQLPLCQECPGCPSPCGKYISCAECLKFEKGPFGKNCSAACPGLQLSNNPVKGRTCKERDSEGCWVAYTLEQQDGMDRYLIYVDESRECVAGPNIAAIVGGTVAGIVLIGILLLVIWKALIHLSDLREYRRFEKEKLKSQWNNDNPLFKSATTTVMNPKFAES
# Experiment: Assay to determine inhibition of LFA-1 binding to ICAM-1
# Details: immunopurified LFA-1 binding to plate-bound sICAM-1; read-out: LFA/ICAM1 Kd
# Text: Assay to Determine Inhibition of LFA-1 Binding to ICAM-1
# This assay protocol is designed to study the direct antagonism, by a test compound, of the interaction of ICAM-1 with the Leukointegrin CD18/CD11a (LFA-1).
# LFA-1 is immunopurified using the TS2/4 antibody from a 20 g pellet of human JY or SKW3 cells, utilizing a protocol previously described (Dustin, M. J.; et al., J. Immunol. 1992, 148, 2654-2660). The LFA-1 is purified from SKW3 lysates by immunoaffinity chromatography on TS2/4 LFA-1 mAb Sepharose and eluted at pH 11.5 in the presence of 2 mM MgCl2 and 1% octylglucoside. After collection and neutralization of fractions from the TS2/4 column, samples are pooled and precleared with Protein G agarose.
# A soluble form of ICAM-1 is constructed, expressed, purified and characterized as previously described (Marlin, S.; et al., Nature, 1990, 344, 70-72 and see Arruda, A.; et al., Antimicrob. Agents Chemother. 1992, 36, 1186-1192). Briefly, isoleucine 454 which is located at the putative boundary between domain 5 of the ectodomain and the transmembrane domain, is changed to a stop codon using standard oligonucleotide-directed mutagenesis. This construction yields a molecule identical with the first 453 amino acids of membrane bound ICAM-1. An expression vector is created with a hamster dihydrofolate reductase gene, a neomycin-resistance marker, and the coding region of the sICAM-1 construct described above, along with the promoter, splice signals, and polyadenylation signal of the SV40 early region. The recombinant plasmid is transfected into CHO DUX cells using standard calcium phosphate methods. Cells are passaged in selective media (G418) and colonies secreting sICAM-1 are amplified using methotrexate. sICAM-1 is purified from serum-free media using traditional non-affinity chromatographic techniques, including ion exchange and size exclusion chromatography.
# LFA-1 binding to ICAM-1 is monitored by first incubating sICAM-1 at 40 μg/mL in Dulbecco's phosphate buffered saline with calcium and magnesium, additional 2 mM MgCl2 and 0.1 mM PMSF (Diluting Buffer) in a 96-well plate for 30 min at room temperature. Plates are then blocked by the addition of 2% (w/v) bovine serum albumin in Diluting Buffer for 37° C. for 1 h. Blocking solution is removed from wells, and test compounds are diluted and then added followed by the addition of approximately 25 ng of immunoaffinity purified LFA-1. The LFA-1 is incubated in the presence of test compound and ICAM-1 at 37° C. for 1 h. Wells are washed 3 times with Diluting Buffer. The bound LFA-1 is detected by the addition of a polyclonal antibody directed against a peptide corresponding to the CD18 cytoplasmic tail in a 1:100 dilution with Diluting Buffer and 1% BSA and allowed to incubate for 45 min at 37° C. Wells are washed 3 times with Diluting Buffer and the bound polyclonal antibody is detected by the addition of a 1:4000 dilution of horse radish peroxidase conjugated to goat immunoglobulin directed against rabbit immunoglobulin. This reagent is allowed to incubate for 20 min at 37° C., wells are washed as above and the substrate for the horse radish peroxidase is added to each well to develop a quantitative colorimetric signal proportional to the amount of LFA-1 bound to sICAM-1. Soluble ICAM-1 (60 μg/mL) is used as a positive control for inhibition of the LFA-1/ICAM-1 interaction. The lack of the addition of LFA-1 to the binding assay is used as a background control for all samples. A dose-response curve is obtained for all test compounds.
row,Structure (SMILES),Kd [nM]
1,C[C@H](NC(=O)c1cnc2n1[C@](C)(Cc1ccc(C#N)cc1)C(=O)N2c1cc(Cl)cc(Cl)c1)C(=O)N[C@H](C)c1ccccn1 [Compound 2],8.9
2,C[C@@]1(Cc2ccc(C#N)cc2)C(=O)N(c2cc(Cl)cc(Cl)c2)c2ncc(C(=O)NC3(C(=O)N4CC[C@@H](c5noc(=O)[nH]5)C4)CC3)n21 [Compound 9],4.6
3,CC(=O)N[C@H]1CCN(C(=O)C2(NC(=O)c3cnc4n3[C@](C)(Cc3ccc(C#N)cc3)C(=O)N4c3cc(Cl)cc(Cl)c3)CC2)C1 [Compound 12],5.4
4,C[C@H](NC(=O)c1cnc2n1[C@](C)(Cc1ccc(C#N)cc1)C(=O)N2c1cc(Cl)cc(Cl)c1)C(=O)N1CCC[C@@H](C(N)=O)C1 [Compound 13],2.4
5,C[C@H](NC(=O)c1cnc2n1[C@](C)(Cc1ccc(C#N)cc1)C(=O)N2c1cc(Cl)c(F)c(Cl)c1)C(=O)NC1(c2ccccn2)CC1 [Compound 55],10
6,C[C@@]1(Cc2ccc(C#N)cc2)C(=O)N(c2cc(Cl)c(F)c(Cl)c2)c2ncc(C(=O)NC3(C(=O)NC4(c5nccs5)CC4)CC3)n21 [Compound 60],13
7,C[C@@]1(Cc2ccc(C#N)cc2)C(=O)N(c2cc(Cl)c(F)c(Cl)c2)c2ncc(C(=O)NC3(C(=O)NC4(c5nnc[nH]5)CC4)CC3)n21 [Compound 62],7
8,C[C@@]1(Cc2ccc(C#N)cc2)C(=O)N(c2cc(Cl)cc(Cl)c2)c2ncc(C(=O)NC3(C(=O)NC4(C(N)=O)CC4)CC3)n21 [Compound 72],8.4
9,C[C@@]1(Cc2ccc(C#N)cc2)C(=O)N(c2cc(Cl)cc(Cl)c2)c2ncc(C(=O)NC3(C(=O)N[C@@H]4CC[C@H](C(N)=O)C4)CC3)n21 [Compound 105],24
10,C[C@@H](NC(=O)c1cnc2n1[C@](C)(Cc1ccc(C#N)cc1)C(=O)N2c1cc(Cl)cc(Cl)c1)C(=O)NC1(C(=O)O)CC1 [Compound 107],28
11,COC(=O)[C@H]1CC[C@@H](NC(=O)C2(NC(=O)c3cnc4n3[C@](C)(Cc3ccc(C#N)cc3)C(=O)N4c3cc(Cl)cc(Cl)c3)CC2)C1 [Compound 109],28
12,C[C@H](NC(=O)c1cnc2n1[C@](C)(Cc1ccc(C#N)cc1)C(=O)N2c1cc(Cl)cc(Cl)c1)C(=O)NC1CCC[C@H]1C(N)=O (stereo partly shown) [Compound 114],32
13,C[C@@H](NC(=O)c1cnc2n1[C@](C)(Cc1ccc(C#N)cc1)C(=O)N2c1cc(Cl)cc(Cl)c1)C(=O)Nc1ccnn1C [Compound 129],45
14,CC(=O)N1CCC(NC(=O)C2(NC(=O)c3cnc4n3[C@](C)(Cc3ccc(C#N)cc3)C(=O)N4c3cc(Cl)cc(Cl)c3)CC2)CC1 [Compound 143],71
15,C[C@@]1(Cc2ccc(C#N)cc2)C(=O)N(c2cc(Cl)cc(Cl)c2)c2ncc(C(=O)NC3(C(=O)N4CC[C@@H](O)C4)CC3)n21 [Compound 160],5.9
16,C[C@@]1(Cc2ccc(C#N)cc2)C(=O)N(c2cc(Cl)cc(Cl)c2)c2ncc(C(=O)NC3(C(=O)N4CCC(S(C)(=O)=O)C4)CC3)n21 (stereo partly shown) [Compound 185],24
17,CCN(C(C)=O)C1CCN(C(=O)C2(NC(=O)c3cnc4n3[C@](C)(Cc3ccc(OC(F)(F)F)cc3)C(=O)N4c3cc(Cl)cc(Cl)c3)CC2)C1 (stereo partly shown) [Compound 187],22
18,CC(=O)NC1CCCN(C(=O)C2(NC(=O)c3cnc4n3[C@](C)(Cc3ccc(C#N)cc3)C(=O)N4c3cc(Cl)cc(Cl)c3)CC2)C1 (stereo partly shown) [Compound 201],34
19,C[C@H](NC(=O)c1cnc2n1[C@](C)(Cc1ccc(C#N)cc1)C(=O)N2c1cc(Cl)cc(Cl)c1)C(=O)N1CCC[C@@H]1CO [Compound 215],39
20,C[C@H](NC(=O)c1cnc2n1[C@](C)(Cc1ccc(C#N)cc1)C(=O)N2c1cc(Cl)cc(Cl)c1)C(=O)NCCN1CCOCC1 [Compound 259],120
21,C[C@@H](NC(=O)c1cnc2n1[C@](C)(Cc1ccc(C#N)cc1)C(=O)N2c1cc(Cl)cc(Cl)c1)C(=O)Nc1nccs1 [Compound 286],100
